Data taken from patent US9359338B2, “Cyclopropanecarboxamido-substitute aromatic compounds as anti-tumor agents” (Crown Bioscience Inc. (Taiwan), priority 2012, dated 2016).
Read-outs that look alike come from different tables or passages of the source.

What was measured:
KDR kinase (790-1356 AA) = KDR kinase (790-1356 AA) (Homo sapiens (Human), UniProt P35968); assay: Inhibitory activity at KDR kinase (Lance Ultra Ulight-TK assay); format: biochemical
Experimental: Inhibitory Activity of Compounds at KDR Kinase
• [Experimental method]: Use Lance@Ultra Ulight™-TK assay kit from PerKinElmer to evaluate the inhibitory activity of compounds at KDR kinase. • [Instrument]: PerKinElmer's ENVISION plate reader • [Materials]: Optiplate-384 well plate (PerKinElmer), kinase buffer (50 mM Hepes pH7.5, 0.25 mM EGTA, 2 mM DTT, 0.01% Tween 20, 10 mM Mg^2+, 0.5 mM Mn^2+), KDR kinase (790-1356 AA, Crown Bioscience), KDR kinase substrate (PerKinElmer catalogue # TRF0127-M), Lance@Eu-W1024-anti-phosphotyrosine (PT66) (PerKinElmer, catalogue #AD0068), ATP (Invitrogen), DMSO (Sigma, catalogue #34869), purified water (Millipore, type: Milli-Q). • [Study conditions]: Mix KDR (final concentration: 20 nM) and compound (final DMSO: 0.5%), pre-incubate for 20 min at 30° C.; then add ATP (final concentration: 90 μM) and the substrate (final concentration […]). React for 2 hrs at 30° C. After the reaction, add antibody and reaction for 60 min at 30° C. Read the plate (615 nm, 665 nm), calculate the ratio of the value at 665 nm vs 615 nm and analyze the data. • [Samples]: Compounds in the examples and Sorafenib (positive control) • [Data Analysis]: Use CBIS data analysis software to calculate IC50 values

pERK in MDA-MB-231 cells = assay: Inhibitory activity at pERK (In Cell Western, MDA-MB-231 cells); format: cell-based; conditions: read-out: MDA-MB-231 pERK IC50
Experimental: Inhibitory Activity of Compounds at pERK
When the cells reach 80% confluency, collect cells by trypsinization and centrifugation at 800 rpm for 3 minutes. Resuspend cells with appropriate volume of medium and count cell numbers. Adjust cell concentration to 70000 cells/mL, and split 100 μL cell suspension per well into 96-well plates. Transfer the plates into cell culture incubator (37° C., 5% CO2) and incubate cells overnight. Discard the medium, wash with PBS once, Prepare compound serial dilutions in culture medium with total 8 compound concentrations at 3-fold serial dilutions (the final top concentration starts from 30 μM). Dispense 75 μL DMEM medium (with 0.1% BSA) and 25 μL of each test compound dilution into corresponding wells with DMSO at 0.3% final concentration. Continue incubating cells in cell culture incubator for additional 2 hrs at 37° C., 5% CO2. Discard culture medium, and wash cells once with PBS. Add 100 μL of 4% formaldehyde solution to each well and fix for 20 min. Discard the formaldehyde, then add 100 μL ice-cold 100% methanol at 4° C. for 20 min. Discard methanol, wash with PBS three times. Add to each well 100 μL of 2% BSA solution, seal for 30 min at room temperature. Discard the BSA solution, add to each well 50 μL of the 1st antibody solution (prepared with 2% BSA, 1:250 dilution), incubate at 4° C. overnight. Discard the 1^St antibody solution, wash with PBS four times. Add to each well […] the 2nd antibody solution (prepared with 1% BSA, 1:1000 dilution), incubate at room temperature for 1 hr. Discard the 2nd antibody solution, wash with PBS four times, add to each well 100 μL PI solution (1.5 μM), incubate at room temperature for 30 min. Use Acumen (TPP) to measure the fluorescence. • [Samples]: Compounds in the examples and sorafenib (positive control) • [Data Analysis]: Use CBIS data analysis software to calculate IC50 values

PLC-PRF-5 cells = assay: Inhibition of proliferation of PLC-PRF-5 cells (ATPlite); format: cell-based; conditions: read-out: PLC-PRF-5 cell proliferation IC50
From the text: Inhibitory Activity of Compounds to the Proliferation of PLC-PRF-5 Cells
• [experimental Method]: Use PerKinElmer's ATPlite™ Luminescence ATP Detection Assay System to evaluate the inhibitory activity of compounds to the proliferation of PLC-PRF-5 cells. • [Instruments]: ENVISION plate reader (PerKinElmer) and centrifuge (Thermo Scientific, Sorvall ST16R) • [material]: PLC-PRF-5 cells (ATCC), 96-well plate (Nunc, #165305), DMEM medium (Gibco, #11965-092), PBS (Invitrogen, #10010023), fetal bovine serum (Gibco, #16000044), DMSO (Sigma, #D2650), ATPlite™ Luminescence ATP Detection Assay System (PerkinElmer, #6016949), purified water (Millipore, type: Milli-Q). • [Protocol]: Grow PLC-PRF-5 cells in DMEM supplemented with 10% FBS. When the cells reach 80% confluency, collect cells by trypsinization and centrifugation at 800 rpm for 3 min. Resuspend cells with appropriate volume of medium and count cell numbers. Adjust cell concentration to 50000 cells/mL, and split 160 μL cell suspension per well into 96-well plates. Transfer the plates into cell culture incubator (37° C., 5% CO2) and incubate cells for 2 hrs. Prepare compound serial dilutions in culture medium with total 8 compound concentrations at 3-fold serial dilutions (the final top concentration starts from 30 μM). Dispense 40 μL of each test compound dilution into corresponding wells with DMSO at 0.3% final concentration. Continue incubating cells in cell culture incubator for additional 96 hrs at 37° C., 5% CO2. Discard culture medium, and wash cells once with PBS. Add 50 μL cell lysis buffer per well and shake plates for 5 min at room temperature to ensure complete lysis of cells. Then add 50 μL of substrate solution and shake plates for 1 min at room temperature. Allow the plates to incubate at room temperature for 5 min, followed by recording the luminescence signals using Envision, and subsequent data analysis. • [Samples]: Compounds in the examples and Sorafenib (positive control) • [Data analysis]: Use CBIS data analysis software to calculate IC50 values

[1] = Homo sapiens, MDA-MB-231, MDA-MB-231 cells
[2] = Homo sapiens, PLC-PRF-5, PLC-PRF-5 cells

KDR kinase (790-1356 AA), sequence (P35968 790-1356): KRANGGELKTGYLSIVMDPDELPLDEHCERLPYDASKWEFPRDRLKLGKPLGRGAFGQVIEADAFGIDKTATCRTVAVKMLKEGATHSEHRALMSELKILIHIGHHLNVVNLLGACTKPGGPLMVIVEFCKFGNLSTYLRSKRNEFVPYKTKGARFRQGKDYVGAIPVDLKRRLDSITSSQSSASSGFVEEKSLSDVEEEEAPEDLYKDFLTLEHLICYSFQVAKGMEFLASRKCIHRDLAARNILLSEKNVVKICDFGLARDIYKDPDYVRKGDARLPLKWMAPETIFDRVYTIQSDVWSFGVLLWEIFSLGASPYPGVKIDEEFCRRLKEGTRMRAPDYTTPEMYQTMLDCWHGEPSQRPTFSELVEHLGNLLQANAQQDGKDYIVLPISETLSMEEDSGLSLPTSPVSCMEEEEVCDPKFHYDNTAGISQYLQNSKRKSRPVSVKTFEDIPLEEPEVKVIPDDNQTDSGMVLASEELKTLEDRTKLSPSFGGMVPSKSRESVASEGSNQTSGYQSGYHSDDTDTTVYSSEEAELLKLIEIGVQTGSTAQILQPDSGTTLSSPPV

Row | Structure (SMILES) | IC50 (KDR kinase (790-1356 AA)) [µM] | IC50 (pERK in MDA-MB-231 cells; [1]) [µM] | IC50 (pERK in MDA-MB-231 cells; MDA-MB-231 cells) [µM] | IC50 (PLC-PRF-5 cells; [2]) [µM] | IC50 (PLC-PRF-5 cells; PLC-PRF-5 cells) [µM]
1 | Cc1cc(Oc2cc(NC(=O)C3CC3)ncn2)c(F)cc1NC(=O)Nc1ccc(Cl)c(C(F)(F)F)c1 [Exe. 003] | 0.0167 | 0.087 |  | 11.5 | 
2 | N#Cc1cc(NC(=O)Nc2ccc(Cl)c(C(F)(F)F)c2)ccc1Oc1cc(NC(=O)C2CC2)ncn1 [Exe. 006] | 0.025 | 0.281 |  | 5.38 | 
3 | Cc1nc(NC(=O)Nc2ccc(Cl)c(C(F)(F)F)c2)ccc1Oc1cc(NC(=O)C2CC2)ncn1 [Exe. 011] | 0.0134 | 0.261 |  | 19.5 | 
4 | O=C(Nc1ccc(Oc2cc(NC(=O)C3CC3)ncn2)nc1)Nc1ccc(Cl)c(C(F)(F)F)c1 [Exe. 015] | 0.0042 | 0.094 |  | 6.5 | 
5 | O=C(Nc1ccc(Oc2ccnc(NC(=O)C3CC3)c2)c(F)c1)Nc1ccc(Cl)c(C(F)(F)F)c1 [Exe. 027] |  |  | 0.0665 |  | 2.39
6 | Cc1cc(Oc2cc(NC(=O)C3CC3)ncn2)ccc1NC(=O)Nc1cc(NC(C)C)cc(C(F)(F)F)c1 [Exe. 032, N-[6-[4-[[3-(isopropylamino)-5-(trifluoromethyl)phenyl]carbamoylamino]-3-methyl-phenoxy]pyrimidin-4-yl]cyclopropanecarboxamide] | 0.026 | 0.115 |  | 20 | 
7 | CN1CCC(c2ccc(NC(=O)Nc3ccc(Oc4ccnc(NC(=O)C5CC5)c4)c(F)c3)cc2C(F)(F)F)CC1 [Exe. 036] | 0.0156 | 0.29 |  | 2.4 | 
8 | CN1CCC(C(=O)c2cc(NC(=O)Nc3ccc(Oc4ccnc(NC(=O)C5CC5)c4)c(F)c3)cc(C(F)(F)F)c2)CC1 [Exe. 040] | 0.0152 | 0.134 |  | 0.64 | 
9 | Nc1nnc(-c2cc(NC(=O)Nc3ccc(Oc4ccnc(NC(=O)C5CC5)c4)c(F)c3)cc(C(F)(F)F)c2)o1 [Exe. 042] | 0.0115 | 0.094 |  | 3.56 | 
10 | CCOC(=O)C(C)(C)CNc1cc(NC(=O)Nc2ccc(Oc3ccnc(NC(=O)C4CC4)c3)c(F)c2)cc(C(F)(F)F)c1 [Exe. 050] | 0.0128 | 0.11 |  | 2.23 | 
11 | O=C(Nc1cc(N2CCN(CCF)CC2)cc(C(F)(F)F)c1)Nc1ccc(Oc2ccnc(NC(=O)C3CC3)c2)c(F)c1 [Exe. 053] | 0.013 | 0.0651 |  | 0.686 | 
12 | CC(C)N1CCN(c2cc(NC(=O)Nc3ccc(Oc4ccnc(NC(=O)C5CC5)c4)c(F)c3)cc(C(F)(F)F)c2)CC1 [Exe. 054] | 0.0153 | 0.0976 |  | 0.34 | 
13 | CCN1CCN(c2cc(NC(=O)Nc3ccc(Oc4ccnc(NC(=O)C5CC5)c4)c(F)c3)cc(C(F)(F)F)c2)CC1 [Exe. 055] | 0.0145 | 0.284 |  | 0.42 | 
14 | Cc1cc(Oc2cc(NC(=O)C3CC3)ncn2)ccc1NC(=O)Nc1cc(C2CCN(C)CC2)cc(C(F)(F)F)c1 [Exe. 073] |  |  |  | 2.97 | 

The remaining compounds from weak to strong by IC50 (pERK in MDA-MB-231 cells; [1]), led by results:

Row | IC50 (KDR kinase (790-1356 AA)) [µM] | IC50 (pERK in MDA-MB-231 cells; [1]) [µM] | IC50 (pERK in MDA-MB-231 cells; MDA-MB-231 cells) [µM] | Structure (SMILES) | IC50 (PLC-PRF-5 cells; [2]) [µM] | IC50 (PLC-PRF-5 cells; PLC-PRF-5 cells) [µM]
15 |  | 0.0759 |  | CC(c1cc(NC(=O)Nc2ccc(Oc3ccnc(NC(=O)C4CC4)c3)c(F)c2)cc(C(F)(F)F)c1)N1CCNCC1 (centres unmarked) [Exe. 067, N-[4-[2-fluoro-4-[[3-(1-piperazin-1-ylethyl)-5-(trifluoromethyl)phenyl]carbamoylamino]phenoxy]-2-pyridyl]cyclopropanecarboxamide] | 0.235 | 
16 | 0.0099 | 0.071 |  | O=C(Nc1cccc(Oc2cc(NC(=O)C3CC3)ncn2)c1)Nc1ccc(Cl)c(C(F)(F)F)c1 [Exe. 012] | 10.3 | 
17 | 0.0166 | 0.0582 |  | O=C(Nc1cc(N2CCC(F)CC2)cc(C(F)(F)F)c1)Nc1ccc(Oc2ccnc(NC(=O)C3CC3)c2)c(F)c1 [Exe. 046] | 0.64 | 
18 | 0.0094 | 0.055 |  | Cc1cc(Oc2cc(NC(=O)C3CC3)ncn2)ncc1NC(=O)Nc1ccc(Cl)c(C(F)(F)F)c1 [Exe. 016] | 20.1 | 
19 | 0.0142 | 0.0544 |  | O=C(Nc1cc(OC2CCOC2)cc(C(F)(F)F)c1)Nc1ccc(Oc2ccnc(NC(=O)C3CC3)c2)c(F)c1 (centres unmarked) [Exe. 039] | 0.5 | 
20 | 0.0099 | 0.0513 |  | O=C(Nc1cc(NC2CC2)cc(C(F)(F)F)c1)Nc1ccc(Oc2ccnc(NC(=O)C3CC3)c2)c(F)c1 [Exe. 049] | 0.642 | 
21 | 0.0142 | 0.05 |  | O=C(Nc1ccc(F)c(Oc2cc(NC(=O)C3CC3)ncn2)c1)Nc1ccc(Cl)c(C(F)(F)F)c1 [Exe. 013] | 16.1 | 
22 | 0.007 | 0.0485 |  | Cc1ccc(Oc2cc(NC(=O)C3CC3)ncn2)cc1NC(=O)Nc1ccc(Cl)c(C(F)(F)F)c1 [Exe. 014] | 8.7 | 
23 | 0.027 | 0.0406 |  | O=C(Nc1cc(F)cc(Oc2cc(NC(=O)C3CC3)ncn2)c1)Nc1ccc(Cl)c(C(F)(F)F)c1 [Exe. 005] | 6 | 
24 | 0.0154 | 0.04 |  | CC(c1cc(NC(=O)Nc2ccc(Oc3ccnc(NC(=O)C4CC4)c3)c(F)c2)cc(C(F)(F)F)c1)N1CCN(C)CC1 (centres unmarked) [Exe. 045] | 0.108 | 
25 | 0.0182 | 0.039 |  | N#Cc1cc(NC(=O)Nc2ccc(Cl)c(C(F)(F)F)c2)ccc1Oc1ccnc(NC(=O)C2CC2)c1 [Exe. 026] | 0.9 | 
26 | 0.0181 | 0.03 |  | COCC(=O)Nc1cc(NC(=O)Nc2ccc(Oc3ccnc(NC(=O)C4CC4)c3)c(F)c2)cc(C(F)(F)F)c1 [Exe. 043] | 0.604 | 
27 | 0.0054 | 0.0155 |  | O=C(Nc1ccc(Cl)c(C(F)(F)F)c1)Nc1cc(Oc2cc(NC(=O)C3CC3)ncn2)ccc1F [Exe. 002, N-[6-[3-[[4-chloro-3-(trifluoromethyl)phenyl]carbamoyl-amino]-4-fluoro-phenoxy]pyrimidin-4-yl]cyclopropanecarboxamide] | 3.4 | 
28 | 0.0056 | 0.005 |  | CC(F)(F)c1cncc(NC(=O)Nc2ccc(Oc3ccnc(NC(=O)C4CC4)c3)cc2F)c1 [Exe. 033] | 0.035 | 
29 | 0.0094 | 0.0046 |  | Cc1cc(Oc2ccnc(NC(=O)C3CC3)c2)ncc1NC(=O)Nc1ccc(Cl)c(C(F)(F)F)c1 [Exe. 018] | 4.04 | 
